From article PMC7377474, “Preclinical characterization of CPL302-253, a selective inhibitor of PI3Kδ, as the candidate for the inhalatory treatment and prevention of Asthma” (PLoS ONE, 2020)
Like-named read-outs stand apart in the source and are kept apart here.

Columns and labels:
[1] = system: basophils; test: Basophils activation (Flow CAST Basophil Activation Test); type: cell-based, human; details: for IC50: anti-FcεRI antibody; for IgE (basophil activation, Fig 4D): concentration 0 = 100
Procedure: The study was performed using Flow CAST Basophil Activation Test (Buhlmann) according to manufacturer’s protocol with modifications. In brief to U bottom 96-well plate 50 μl of stimulus solution (stimulating antibody specific for the high-affinity IgE receptor FcεRI) or assay bufferwas added. Subsequently to some wells, 50 μl of inhibitor at different concentrations in assay buffer was added. In the next step 50 μl of EDTA collected fresh human blood was added to each well followed by 50 μl of staining reagent (diluted 2:3 in assay buffer). The cells were incubated for 25 min at 37°Cin humidified incubator in the presence of 5% CO2. After incubation cells were centrifuged and erythrocytes were lysed with pre-warmed (18–28°C) Lysing Reagent. After centrifugation cells were suspended in Wash Buffer and analysed by FACSCalibur. Data were analysed using CellQuestPro and FlowJo software.

[2] = Procedure: Unless otherwise stated, all chemicals and materials were ordered from Merck Life Science. Each biological replicate was prepared in triplicates. […] The negative control contained buffer instead of NADPH solution. Samples were collected at 0, 10, 20 and 40 min or 0 and 40 min for the negative and double negative controls. The reaction was stopped by protein precipitation in 2 volumes of ice cold MeOH with 200 nM imipramine (as an internal standard for LC-MS analysis). Then, the extract was mixed (1 min, 1000 rpm), filtered through 0.22 μm filter on 96-well plate vacuum manifold and subjected to LC-MS analysis. Metabolic stability in mouse and human cryopreserved hepatocytes was performed in suspension on 96-well tissue culture plates at 1 μM concentration in Williams medium E with CM4000 supplements (ThermoFisher Scientific). Cells were thawed according to the manufacturers manual, counted and preincubated for 30 min in a CO2 incubator (5% CO2, 37 °C, 5 · 10^4 cells/well). For the negative control cells were thermally inactivated for 5 min at 95 °C. Similarly to microsomal stability, experiments were done in technical triplicates, with the additional time point at 80’. Samples for LC-MS analysis were prepared as described for microsomes. Intrinsic clearance (Clint) was calculated using the rate of compound disappearance from the reaction. The elimination rate constant (k) was calculated as a module of slope of the linear regression from ln [substrate] vs time. Then, clearance was calculated as Clint = k/d, where d is protein or cell density for microsomal and hepatocyte stability, respectively.
The mobile phases were (A) 10 mM ammonium acetate pH 5.4 in water and (B) methanol. Samples were eluted using a timed, linear gradient from 30% B at 0 min to 90% B at 1.5 min then a hold 90% B to 2.5 min, after it back to initial 30% B to 2.6 min. The columns was equilibrated for up to 5 min. The flow rate was 0.5 mL/min. The injection volume was 3 μL.

[3] = target: T1, PI3Kα (Homo sapiens, UniProt P42336); test: ADP-Glo Kinase Assay; type: biochemical; design: purchased Merck Millipore
Procedure: (§1) The potency and selectivity of CPL302-253 against different isotypes of class I PI3K were assessed using ADP-Glo Kinase Assay (Promega) according to manufacturer’s protocol. PI3Kα, PI3Kβ, PI3Kδ, PI3Kγ were purchased from Merck Millipore. The inhibition of examined kinases activity was evaluated by measuring their ability to converse ATP to ADP in the presence of decreasing doses of tested compound (from 400 μM to 0,00004 μM). Kinases were mixed with 1 mM PIP2:PS substrate (Phosphoinositol-4,5-bisphosphate (PIP2) lipid vesicles with phosphoserine (PS), Thermofisher Scientific) and 30 μM ATP in an assay buffer (50 mM HEPES pH 7.5,50 mM NaCl, 3 mM MgCl2, 25 μg/ml BSA). The mixture was incubated in the dark for 1 h at 25°C (PI3Kα and PI3Kδ) or at 30°C (PI3Kβ, PI3Kγ). Next ADP-Glo reagent 1 was added to stop the reaction and remove any remaining ATP. The samples were incubated for 40 min at 25°C. Subsequently the ADP-Glo reagent 2 was added and reactions were incubated for 40 min at 25°C. Finally, luminescence was assessed and the IC50 was calculated.
Target sequence in this assay (P42336 whole entry): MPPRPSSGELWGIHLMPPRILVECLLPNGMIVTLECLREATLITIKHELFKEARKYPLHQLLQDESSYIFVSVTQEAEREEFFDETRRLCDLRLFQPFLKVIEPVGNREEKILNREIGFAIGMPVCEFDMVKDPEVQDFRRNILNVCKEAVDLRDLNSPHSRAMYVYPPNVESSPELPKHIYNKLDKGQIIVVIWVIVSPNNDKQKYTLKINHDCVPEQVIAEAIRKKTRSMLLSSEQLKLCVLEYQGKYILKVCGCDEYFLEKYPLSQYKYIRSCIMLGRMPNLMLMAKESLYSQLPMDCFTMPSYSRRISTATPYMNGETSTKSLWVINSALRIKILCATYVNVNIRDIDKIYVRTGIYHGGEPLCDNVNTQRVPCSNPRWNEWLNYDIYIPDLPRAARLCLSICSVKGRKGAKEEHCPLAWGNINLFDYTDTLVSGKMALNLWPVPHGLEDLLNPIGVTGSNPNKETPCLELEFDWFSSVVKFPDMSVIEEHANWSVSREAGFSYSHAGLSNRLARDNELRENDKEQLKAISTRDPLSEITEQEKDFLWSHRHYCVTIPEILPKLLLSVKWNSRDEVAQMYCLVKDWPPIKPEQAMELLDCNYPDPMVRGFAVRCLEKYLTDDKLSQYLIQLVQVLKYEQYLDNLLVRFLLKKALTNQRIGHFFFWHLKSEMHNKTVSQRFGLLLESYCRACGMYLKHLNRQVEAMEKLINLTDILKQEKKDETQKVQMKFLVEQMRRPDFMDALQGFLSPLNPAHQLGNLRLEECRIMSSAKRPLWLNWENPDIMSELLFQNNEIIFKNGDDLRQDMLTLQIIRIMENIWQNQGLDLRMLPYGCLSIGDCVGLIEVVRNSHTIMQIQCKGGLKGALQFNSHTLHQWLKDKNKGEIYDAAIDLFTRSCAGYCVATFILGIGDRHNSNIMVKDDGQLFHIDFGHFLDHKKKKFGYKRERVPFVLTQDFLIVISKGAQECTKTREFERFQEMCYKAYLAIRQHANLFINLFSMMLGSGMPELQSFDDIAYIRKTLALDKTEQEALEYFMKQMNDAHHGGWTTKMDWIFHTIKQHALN
Target sequence in this assay (P27986 whole entry partner): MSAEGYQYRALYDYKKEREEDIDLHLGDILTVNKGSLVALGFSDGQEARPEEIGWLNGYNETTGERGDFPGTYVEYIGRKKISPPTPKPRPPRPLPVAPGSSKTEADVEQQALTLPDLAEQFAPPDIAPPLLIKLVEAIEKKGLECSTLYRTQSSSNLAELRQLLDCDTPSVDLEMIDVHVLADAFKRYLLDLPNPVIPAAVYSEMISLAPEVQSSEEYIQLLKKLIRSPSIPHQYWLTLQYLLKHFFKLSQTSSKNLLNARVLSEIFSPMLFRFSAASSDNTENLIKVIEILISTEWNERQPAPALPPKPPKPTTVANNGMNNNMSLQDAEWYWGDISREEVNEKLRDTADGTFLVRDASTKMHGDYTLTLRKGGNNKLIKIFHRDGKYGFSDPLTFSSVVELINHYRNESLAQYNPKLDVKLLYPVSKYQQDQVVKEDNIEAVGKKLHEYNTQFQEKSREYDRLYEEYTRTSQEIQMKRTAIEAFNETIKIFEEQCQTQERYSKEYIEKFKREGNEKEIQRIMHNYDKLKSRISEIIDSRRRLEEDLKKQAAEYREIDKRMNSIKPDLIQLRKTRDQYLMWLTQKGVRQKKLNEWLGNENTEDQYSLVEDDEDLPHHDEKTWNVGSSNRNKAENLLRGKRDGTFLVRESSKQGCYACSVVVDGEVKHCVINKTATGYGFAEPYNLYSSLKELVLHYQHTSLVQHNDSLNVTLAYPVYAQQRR

[4] = target: T2, PI3Kβ (Homo sapiens, UniProt P42338); test: ADP-Glo Kinase Assay; type: biochemical; design: purchased Merck Millipore
Procedure: as §1
Target sequence in this assay (P42338 whole entry): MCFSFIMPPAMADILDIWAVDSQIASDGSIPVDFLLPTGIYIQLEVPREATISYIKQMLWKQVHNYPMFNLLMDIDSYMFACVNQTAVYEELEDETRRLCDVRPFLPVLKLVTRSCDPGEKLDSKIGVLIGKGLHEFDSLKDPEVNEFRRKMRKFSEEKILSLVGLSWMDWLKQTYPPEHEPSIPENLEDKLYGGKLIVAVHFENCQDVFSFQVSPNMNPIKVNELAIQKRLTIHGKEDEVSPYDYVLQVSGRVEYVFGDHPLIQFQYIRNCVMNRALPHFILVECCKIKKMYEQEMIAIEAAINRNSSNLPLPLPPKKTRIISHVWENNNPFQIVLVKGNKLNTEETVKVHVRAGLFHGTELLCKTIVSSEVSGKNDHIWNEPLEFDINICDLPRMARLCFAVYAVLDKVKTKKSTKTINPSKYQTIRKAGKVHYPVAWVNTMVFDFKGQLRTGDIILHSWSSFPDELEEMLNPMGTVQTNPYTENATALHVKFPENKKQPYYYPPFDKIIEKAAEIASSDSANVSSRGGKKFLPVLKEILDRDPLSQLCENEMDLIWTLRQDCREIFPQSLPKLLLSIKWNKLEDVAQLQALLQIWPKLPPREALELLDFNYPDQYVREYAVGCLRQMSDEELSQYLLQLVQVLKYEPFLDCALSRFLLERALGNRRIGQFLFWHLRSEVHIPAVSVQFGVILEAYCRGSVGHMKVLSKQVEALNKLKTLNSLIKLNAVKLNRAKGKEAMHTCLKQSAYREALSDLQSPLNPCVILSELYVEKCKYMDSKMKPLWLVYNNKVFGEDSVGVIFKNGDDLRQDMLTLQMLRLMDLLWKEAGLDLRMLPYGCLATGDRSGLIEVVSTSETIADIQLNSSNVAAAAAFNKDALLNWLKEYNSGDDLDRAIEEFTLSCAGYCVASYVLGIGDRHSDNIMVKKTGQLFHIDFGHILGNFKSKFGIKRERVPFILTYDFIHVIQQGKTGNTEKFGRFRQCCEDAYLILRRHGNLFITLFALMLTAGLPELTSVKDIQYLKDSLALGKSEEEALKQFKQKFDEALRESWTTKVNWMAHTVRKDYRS
Target sequence in this assay (P27986 whole entry partner): as the sequence (P27986 whole entry partner) above

[5] = target: T3, PI3Kγ (Homo sapiens, UniProt P48736); test: ADP-Glo Kinase Assay; type: biochemical; design: purchased Merck Millipore
Procedure: as §1

[6] = target: T1, PI3Kα; test: KINOMEScan competitive binding assay, Kd; design: purchased Discoverex (KINOMEscan service)
Procedure: (§2) The inhibitor-kinase binding affinity was assessed in KINOMEscan™ assay (Discoverex) according to service provider’s protocol. In brief, in this binding assay the studied compound in solution is incubated with DNA-tagged kinase and kinase active-site directed ligand bound to the beads. The compound competes for binding to kinase with the immobilized ligand. After incubation beads are removed from the solution and kinase bound to ligand is quantified by qPCR. The strength of compound binding is determined based on its ability to block kinase-ligand binding. 11-point 3-fold serial dilution of CPL302-253 was used in order to determine its binding constants (Kd) against different isotypes of class I PI3K. The single concentration of CPL302-253 was used in order to determine its specificity in abroad panel of 468 human kinases. The measure of compounds affinity to each kinase in the panel was the percentage of kinase activity inhibition by tested ligand in comparison to the control.
Target sequence in this assay (P42336 whole entry): as the sequence (P42336 whole entry) above

[7] = target: T2, PI3Kβ; test: KINOMEScan competitive binding assay, Kd; design: purchased Discoverex (KINOMEscan service)
Procedure: as §2
Target sequence in this assay (P42338 whole entry): as the sequence (P42338 whole entry) above

[8] = target: T3, PI3Kγ; test: KINOMEScan competitive binding assay, Kd; design: purchased Discoverex (KINOMEscan service)
Procedure: as §2

T3 sequence (P48736 whole entry): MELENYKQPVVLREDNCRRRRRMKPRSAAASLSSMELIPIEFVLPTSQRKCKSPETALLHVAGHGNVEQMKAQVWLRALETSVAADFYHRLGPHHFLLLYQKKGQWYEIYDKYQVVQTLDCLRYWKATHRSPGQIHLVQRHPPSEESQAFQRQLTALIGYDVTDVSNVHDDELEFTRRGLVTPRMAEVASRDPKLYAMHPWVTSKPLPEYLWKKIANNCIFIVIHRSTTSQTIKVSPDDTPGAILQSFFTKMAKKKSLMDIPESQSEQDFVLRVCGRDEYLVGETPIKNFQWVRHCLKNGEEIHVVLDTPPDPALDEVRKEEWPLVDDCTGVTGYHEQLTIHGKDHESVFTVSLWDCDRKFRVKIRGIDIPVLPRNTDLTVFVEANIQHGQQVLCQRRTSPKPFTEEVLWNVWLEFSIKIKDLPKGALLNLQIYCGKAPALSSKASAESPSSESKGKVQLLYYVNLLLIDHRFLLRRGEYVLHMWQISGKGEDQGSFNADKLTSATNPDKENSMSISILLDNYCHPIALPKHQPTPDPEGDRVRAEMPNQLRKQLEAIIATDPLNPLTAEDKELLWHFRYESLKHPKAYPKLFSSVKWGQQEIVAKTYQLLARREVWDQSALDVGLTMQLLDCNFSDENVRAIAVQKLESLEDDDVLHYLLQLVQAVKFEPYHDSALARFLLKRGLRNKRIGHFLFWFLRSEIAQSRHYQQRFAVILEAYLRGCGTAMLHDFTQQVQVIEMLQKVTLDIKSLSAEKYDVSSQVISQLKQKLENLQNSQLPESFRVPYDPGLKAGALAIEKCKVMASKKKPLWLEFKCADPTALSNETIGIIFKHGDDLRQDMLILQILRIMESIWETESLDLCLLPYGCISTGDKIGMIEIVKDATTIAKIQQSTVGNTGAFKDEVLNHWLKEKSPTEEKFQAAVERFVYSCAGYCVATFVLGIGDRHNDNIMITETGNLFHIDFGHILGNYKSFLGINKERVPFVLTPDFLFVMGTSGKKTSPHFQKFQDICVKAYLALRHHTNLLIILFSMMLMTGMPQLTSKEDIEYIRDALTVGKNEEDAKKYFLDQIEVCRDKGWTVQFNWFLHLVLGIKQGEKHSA

## CC(C)(C)N1CCN(Cc2cc3nc(-c4cncc5[nH]ccc45)cc(N4CCOCC4)n3n2)CC1 [CPL302-253]
[1]; 25 min, human whole blood, 25 min, read-out: IC50 CD63 expression after basophils activation
  IC50: 0.036 µM
[1]; Concentration 1 (unit not given)
  IgE (basophil activation, Fig 4D): 93.65
[1]; Concentration 3 (unit not given)
  IgE (basophil activation, Fig 4D): 103.18
[1]; Concentration 10 (unit not given)
  IgE (basophil activation, Fig 4D): 85.97
[1]; Concentration 33 (unit not given)
  IgE (basophil activation, Fig 4D): 51.03
[1]; Concentration 100 (unit not given)
  IgE (basophil activation, Fig 4D): 22
[1]; Concentration 333 (unit not given)
  IgE (basophil activation, Fig 4D): 3.87
[1]; Concentration 1000 (unit not given)
  IgE (basophil activation, Fig 4D): -1.11
[1]; Concentration 3333 (unit not given)
  IgE (basophil activation, Fig 4D): 5.06
[1]; Concentration 10000 (unit not given)
  IgE (basophil activation, Fig 4D): -1.49
[1]; Homo sapiens, basophil CD63 expression, read-out: IC50 (Fig 4D, printed in the picture)
  IC50: 0.0362 µM
[2]
  degradation in human hepatocytes: degradation was not observed at all
[2]; CD-1, mouse, 1 μM
  Clint, times lower when compared to verapamil: ~30 times
[2]; human, 1 μM
  Clint (Fig 5D), single replicates: 0
  Clint, times lower when compared to verapamil: ~70 times
[2]; mouse, 1 μM
  degradation, fold slower as compared to verapamil: 11 fold
[3]
  IC50: 4.52 µM
[3]; IC50 of isoform α to δ
  Ratio to δ: 371
[4]
  IC50: 9.58 µM
[4]; IC50 of isoform β to δ
  Ratio to δ: 785
[5]
  IC50: 45.4 µM
[5]; IC50 of isoform γ to δ
  Ratio to δ: 3725
[6]
  Kd: 1.9 µM
[7]
  Kd: 0.39 µM
[8]
  Kd: 4.8 µM
